Laboratory results reported in patent US10988459B2 (priority 2015, dated 2021).

Target: human RIP1 kinase domain (2-375) (Homo sapiens (Human), UniProt Q13546)
Assay: biochemical
Assay type: biochemical
Settings: Table 1; apparent Ki (Morrison tight-binding fit); 50 nM RIP1 kinase domain, 50 uM ATP, 2 hours incubation; read-out: RIP1 Ki
Summary of the method: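 Ki^app comes from Morrison tight-binding fits of fractional activity versus compound concentration. Activity was read as ADP production, via tracer displacement lowering fluorescence polarization (633 nm laser). Conditions: 2 h, 50 nM insect-cell-expressed enzyme, 50 uM ATP, 30 mM MgCl2, 1 mM DTT, 0.5% DMSO, pH 7.5 Hepes.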

human RIP1 kinase domain (2-375), sequence (Q13546 2-375): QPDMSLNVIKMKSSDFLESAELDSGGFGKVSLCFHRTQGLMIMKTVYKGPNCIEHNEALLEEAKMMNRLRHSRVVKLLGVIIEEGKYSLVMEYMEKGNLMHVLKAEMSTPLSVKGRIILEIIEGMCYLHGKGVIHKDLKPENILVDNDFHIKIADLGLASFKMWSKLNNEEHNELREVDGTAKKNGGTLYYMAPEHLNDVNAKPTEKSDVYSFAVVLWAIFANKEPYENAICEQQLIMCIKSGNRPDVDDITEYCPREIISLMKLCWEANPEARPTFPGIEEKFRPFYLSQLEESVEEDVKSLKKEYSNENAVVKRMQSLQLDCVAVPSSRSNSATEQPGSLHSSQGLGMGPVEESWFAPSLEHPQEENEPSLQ

Q: CC(C)(C)C1CCc2onc(C(=O)N[C@H]3COc4ccccc4NC3=O)c2C1 (stereo partly drawn) [Example 65, 5-(tert-butyl)-N-((S)-4-oxo-2,3,4,5-tetrahydrobenzo[b][1,4]oxazepin-3-yl)-4,5,6,7-tetrahydrobenzo[d]isoxazole-3-carboxamide] was tested. Which Ki did it give?
A: Its Ki is 0.404 µM.

Q: CN1C(=O)[C@@H](NC(=O)c2n[nH]c3c2CCCC3)COc2ccccc21 [Example 32, (S)—N-(5-methyl-4-oxo-2,3,4,5-tetrahydrobenzo[b][1,4]oxazepin-3-yl)-4,5,6,7-tetrahydro-1H-indazole-3-carboxamide] was tested. Which Ki did it give?
A: Its Ki is 3.4 µM.

Same assay, conditions: human RIP1 kinase domain (2-375), 50 uM ATP, 2 hours incubation, Transcreener ADP assay; read-out: RIP1 Ki

Q: Which Ki does the source give for CN1C(=O)[C@@H](NC(=O)c2nnc(Cc3cccc(F)c3F)[nH]2)CCn2nccc21 [Example 99, (S)-5-(2,3-difluorobenzyl)-N-(4-methyl-5-oxo-5,6,7,8-tetrahydro-4H-pyrazolo[1,5-a][1,3]diazepin-6-yl)-4H-1,2,4-triazole-3-carboxamide] here?
A: The Ki was 0.0346 µM.

Q: With Cc1cc2n(n1)CC[C@H](NC(=O)c1ncn(Cc3ccc(F)cc3F)n1)C(=O)N2C [Example 221, (S)-1-(2,4-difluorobenzyl)-N-(2,4-dimethyl-5-oxo-5,6,7,8-tetrahydro-4H-pyrazolo[1,5-a][1,3]diazepin-6-yl)-1H-1,2,4-triazole-3-carboxamide] as the molecule, how does the Ki read?
A: The Ki was 0.0377 µM.

Q: Which Ki does the source give for CN1C(=O)[C@@H](NC(=O)c2nnc3cnc(C(F)(F)F)cn23)COc2ccccc21 [Example 200, (S)—N-(5-methyl-4-oxo-2,3,4,5-tetrahydrobenzo[b][1,4]oxazepin-3-yl)-6-(trifluoromethyl)-[1,2,4]triazolo[4,3-a]pyrazine-3-carboxamide] here?
A: The Ki was 1.7 µM.

Q: How did the Ki turn out when CN1C(=O)[C@@H](NC(=O)c2n[nH]c3ccc(C4CC4)nc23)COc2ccccc21 [Example 144, 5-cyclopropyl-N-[(3S)-5-methyl-4-oxo-2,3-dihydro-1,5-benzoxazepin-3-yl]-1H-pyrazolo[4,3-b]pyridine-3-carboxamide] was run?
A: The Ki was 0.248 µM.

Same assay, conditions: human RIP1 kinase domain (2-375), Transcreener ADP assay, 50 uM ATP, 2 hours incubation; read-out: RIP1 Ki

Q: With CC[C@@]1(C)OCc2cnc(C(=O)N[C@H]3CCn4nc(C5CC5)cc4N(C)C3=O)cc21 [Example 245, (R)—N—((S)-2-cyclopropyl-4-methyl-5-oxo-5,6,7,8-tetrahydro-4H-pyrazolo[1,5-a][1,3]diazepin-6-yl)-1-ethyl-1-methyl-1,3-dihydrofuro[3,4-c]pyridine-6-carboxamide] as the molecule, how does the Ki read?
A: Its Ki is 0.782 µM.

Q: CC[C@@]1(C)OCc2cnc(C(=O)NC3CCn4cnc(C)c4N(C)C3=O)cc21 (stereo partly drawn) [Example 263, (1R)—N-(1,9-dimethyl-2-oxo-2,3,4,5-tetrahydro-1H-imidazo[1,5-a][1,3]diazepin-3-yl)-1-ethyl-1-methyl-1,3-dihydrofuro[3,4-c]pyridine-6-carboxamide] was tested. Which Ki did it give?
A: Its Ki is 0.854 µM.

Same assay, conditions: tight-binding apparent inhibition constant; human RIP1 kinase domain (2-375) 50 nM, 50 uM ATP, 2 hours; read-out: Ki

Q: CCC[C@@H]1CCCc2nc(C(=O)N[C@H]3CCc4cc(F)cc(F)c4NC3=O)nn21 (single isomer, unassigned) [Example 437] was tested. Which Ki did it give?
A: The Ki was 0.00843 µM.

Q: Which Ki does the source give for CN1C(=O)[C@@H](NC(=O)c2nc3cccc(-c4ccccc4)c3s2)CCn2nccc21 [Example 392, (S)—N-(4-methyl-5-oxo-5,6,7,8-tetrahydro-4H-pyrazolo[1,5-a][1,3]diazepin-6-yl)-7-phenylbenzo[d]thiazole-2-carboxamide] here?
A: Its Ki is 0.0963 µM.

Q: For O=C(N[C@H]1CCc2cc(F)cc(F)c2NC1=O)c1nc2n(n1)[C@H](c1ccccc1)CC2 (single isomer, unassigned) [Example 612], which Ki is on record?
A: Its Ki is 0.071 µM.

Q: For CN1C(=O)[C@@H](NC(=O)c2ncn(Cc3ccccc3)n2)CCn2nc(C3(F)CC3)cc21 [Example 570, 1-benzyl-N-(6S)-2-(1-fluorocyclopropyl)-4-methyl-5-oxo-7,8-dihydro-6H-pyrazolo[1,5-a][1,3]diazepin-6-yl-1,2,4-triazole-3-carboxamide], which Ki is on record?
A: The Ki was 0.024 µM.

Q: CN1C(=O)[C@@H](NC(=O)c2nc3n(n2)[C@H](c2ccccc2F)CC3)CCn2nccc21 [Example 466, (S)-5-(2-fluorophenyl)-N—((S)-4-methyl-5-oxo-5,6,7,8-tetrahydro-4H-pyrazolo[1,5-a][1,3]diazepin-6-yl)-6,7-dihydro-5H-pyrrolo[1,2-b][1,2,4]triazole-2-carboxamide] was tested. Which Ki did it give?
A: The Ki was 0.803 µM.
